# According to the supplement of paper PMC10307832:
# Tests used:
# Test in all cases: relative viability (nuclei count vs DMSO), 5 days (fraction); higher = more cells survive
# [1] = compound: CC1(COc2ccc3c(c2)ncn3-c2ccc3cccc(N4CCC(N)CC4)c3n2)COC1 [Crenolanib] + CC(=O)Nc1cccc(-n2c(=O)n(C3CC3)c(=O)c3c(Nc4ccc(I)cc4F)n(C)c(=O)c(C)c32)c1 [Trametinib] (partner 0.02 µM)
# In short: (§1)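 Relative viability was taken as the ratio of nuclei in treated wells to nuclei in vehicle wells. Lung cancer cell lines in 1536-well plates received compounds by pin tool one day after seeding, either one drug alone or a fixed anchor-drug dose plus five library-drug doses (not always all listed) in √10 steps. Nuclei were counted on 4× images after 5 days of treatment, and values are medians of duplicate plates.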
# [2] = compound: CC1(COc2ccc3c(c2)ncn3-c2ccc3cccc(N4CCC(N)CC4)c3n2)COC1 [Crenolanib] + CS(=O)(=O)N1CCN(Cc2cc3nc(-c4cccc5[nH]ncc45)nc(N4CCOCC4)c3s2)CC1 [Pictilisib] (partner 1 µM)
# In short: as §1
# [3] = compound: CC1(COc2ccc3c(c2)ncn3-c2ccc3cccc(N4CCC(N)CC4)c3n2)COC1 [Crenolanib] + NC(=O)Nc1cc(-c2cccc(F)c2)sc1C(=O)N[C@H]1CCCNC1 [AZD7762] (partner 0.2 µM)
# In short: as §1
# [4] = compound: O=C1NC(=O)[C@@H](c2cn3c4c(cccc24)CCC3)[C@@H]1c1c[nH]c2ccccc12 [Tivantinib] + N=C(N)NC(=N)NCCc1ccccc1 [Phenformin] (partner 250 µM)
# In short: as §1
Cell Line,relative viability ([1]; first compound 0.01 µM),relative viability ([1]; first compound 0.03162 µM),relative viability ([1]; first compound 0.1 µM),relative viability ([1]; first compound 0.3162 µM),relative viability ([1]; first compound 1 µM),relative viability ([2]; first compound 0.01 µM),relative viability ([2]; first compound 0.03162 µM),relative viability ([2]; first compound 0.1 µM),relative viability ([2]; first compound 0.3162 µM),relative viability ([2]; first compound 1 µM),relative viability ([3]; first compound 0.01 µM),relative viability ([3]; first compound 0.03162 µM),relative viability ([3]; first compound 0.1 µM),relative viability ([3]; first compound 0.3162 µM),relative viability ([3]; first compound 1 µM),relative viability ([4]; first compound 0.01 µM),relative viability ([4]; first compound 0.03162 µM),relative viability ([4]; first compound 0.1 µM),relative viability ([4]; first compound 0.3162 µM)
NCI-H647,0.55,0.442,0.486,0.653,0.538,0.448,0.314,0.412,0.423,0.454,0.616,0.497,0.448,0.481,0.424,0.583,0.476,0.437,0.619
NCI-H838,0.564,0.501,0.489,0.53,0.439,0.492,0.499,0.418,0.418,0.381,0.883,0.977,0.886,0.924,0.901,0.705,0.554,0.464,0.514
HARA,0.795,0.955,0.774,0.723,0.628,0.327,0.369,0.283,0.289,0.353,0.399,0.391,0.588,0.248,0.509,0.418,0.417,0.416,0.373
LXF-289,0.665,0.638,0.689,0.7,0.718,0.761,0.666,0.733,0.916,0.755,1.03,1.13,1.09,1.11,1.05,0.536,0.542,0.528,0.504
HOP-62,0.43,0.372,0.368,0.379,0.37,0.724,0.946,0.602,0.768,0.517,0.618,0.709,0.668,1.1,0.75,0.708,0.524,0.65,0.821
LK-2,0.987,0.747,0.859,0.899,0.727,0.586,0.461,0.662,0.473,0.615,0.483,0.46,0.423,0.499,0.453,0.44,–,0.314,0.339
HCC-44,1.05,1.1,1.03,1.11,0.945,0.672,0.649,0.575,0.571,0.492,1.05,0.955,1.01,1.07,0.973,0.325,0.171,0.225,0.215
BEN,1.14,1.06,1.09,0.998,1.15,0.664,0.574,0.51,0.522,0.609,0.684,0.612,0.704,0.735,0.71,0.29,0.258,0.254,0.26
NCI-H2347,0.283,0.286,0.282,0.255,0.293,0.55,0.625,0.464,0.845,0.561,0.815,0.772,0.678,0.818,0.85,0.514,0.375,0.389,0.377
